Source: patent publication US11046712B2, “Glycosidase inhibitors” (Asceneuron SA, priority 2014, dated 2021)

Molecular target: His-Tagged hOGA (human O-GlcNAcase) (Homo sapiens (Human), UniProt O60502)
Assay: Human O-GlcNAcase enzyme inhibition assay (Example B01)
Assay type: biochemical
Conditions: not given

Chain of His-Tagged hOGA (human O-GlcNAcase) (O60502 whole entry): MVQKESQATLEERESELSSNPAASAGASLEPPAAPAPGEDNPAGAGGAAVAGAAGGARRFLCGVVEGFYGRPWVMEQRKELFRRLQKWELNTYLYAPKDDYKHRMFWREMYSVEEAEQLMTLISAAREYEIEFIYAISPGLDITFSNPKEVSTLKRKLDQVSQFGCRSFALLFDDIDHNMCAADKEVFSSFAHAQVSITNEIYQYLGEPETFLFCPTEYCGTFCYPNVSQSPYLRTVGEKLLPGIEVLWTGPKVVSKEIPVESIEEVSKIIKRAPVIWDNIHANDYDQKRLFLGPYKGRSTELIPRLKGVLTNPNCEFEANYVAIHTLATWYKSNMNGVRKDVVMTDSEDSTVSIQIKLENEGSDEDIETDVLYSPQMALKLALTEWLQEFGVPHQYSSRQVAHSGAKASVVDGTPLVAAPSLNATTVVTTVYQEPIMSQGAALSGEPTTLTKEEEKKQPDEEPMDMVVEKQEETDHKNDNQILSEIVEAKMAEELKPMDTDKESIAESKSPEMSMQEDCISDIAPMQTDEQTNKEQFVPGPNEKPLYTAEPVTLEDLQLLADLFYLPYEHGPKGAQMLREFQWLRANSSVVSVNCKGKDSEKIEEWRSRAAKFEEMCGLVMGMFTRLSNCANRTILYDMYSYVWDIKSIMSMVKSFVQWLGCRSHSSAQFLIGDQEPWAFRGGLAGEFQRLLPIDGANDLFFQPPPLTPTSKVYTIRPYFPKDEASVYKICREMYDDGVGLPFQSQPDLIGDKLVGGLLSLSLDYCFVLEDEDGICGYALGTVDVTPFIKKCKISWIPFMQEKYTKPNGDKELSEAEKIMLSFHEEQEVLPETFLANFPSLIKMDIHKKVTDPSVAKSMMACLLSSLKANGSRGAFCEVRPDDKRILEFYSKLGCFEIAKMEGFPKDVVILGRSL

Row | OGA inhibitor activity, in words | SMILES
1 | very potent OGA inhibitors | CC(=O)Nc1nnc(N2CCN(C(C)c3ccc4c(c3)OCC4)CC2)s1 (racemic) [Example 128]
2 | very potent OGA inhibitors | CC(c1ccc2c(c1)OCO2)N1CCN(c2ncc(C(N)=O)s2)CC1 (racemic) [Example 48, 2-(4-(1-(Benzord1(1,3)dioxol-5-yl)ethyl)piperazin-1-yl)thiazole-5-carboxamide]
3 | very potent OGA inhibitors | CC(=O)Nc1nnc(N2CCN(C(C)c3ccc4scnc4c3)CC2)s1 (racemic) [Example 114]
4 | very potent OGA inhibitors | C[C@@H](c1ccc2c(c1)OCO2)N1CCN(c2ncc(F)cn2)CC1 [Example 173, (S)-2-(4-(1-(benzofdin,31dioxol-5-yl)ethyl)piperazin-1-yl)-5-fluoropyrimidine]
5 | very potent OGA inhibitors | C[C@@H](c1ccc2c(c1)OCO2)N1CCN(c2ncc(C(C)(C)O)cn2)CC1 [Example 176, (S)-2-(2-(4-(1-(benzordiri,31dioxol-5-yl)ethyl)piperazin-1-yl)pyrimidin-5-yl)propan-2-ol]
6 | very potent OGA inhibitors | CC(O)c1cnc(N2CCN([C@@H](C)c3ccc4c(c3)OCO4)CC2)nc1 (stereo in doubt) [Example 168, 1-(2-(4-((S)-1-(benzo[dl]1,31dioxol-5-yl)ethyl)piperazin-1-yl)pyrimidin-5-yl)ethan-1-ol]

Row | SMILES | OGA inhibitor activity, in words
7 | C[C@@H](c1ccc2c(c1)OCO2)N1CCN(c2nc3c(s2)CNCC3)CC1 [Example 182, (S)-2-(4-(1-(benzofdlM,31dioxol-5-yl)ethyl)piperazin-1-yl)-4,5,6,7-tetrahydrothiazoloi5,4-c1pyridine] | very potent OGA inhibitors
8 | C[C@@H](c1ccc2c(c1)OCCO2)N1CCN(c2ncc(C(=O)N3CCN(C)CC3)s2)CC1 (single isomer, unassigned) [Example 75] | very potent OGA inhibitors

Same assay, conditions: OGA IC50 (M), OGA enzyme inhibition assay; activity range classes

Row | SMILES | IC50 [M]
9 | CCNC(=O)c1cnc(N2CCN([C@@H](C)c3ccc4c(c3)OCO4)CC2)s1 (single isomer, unassigned) [Example 59] | 1e-06 to 1e-05
10 | CCNC(=O)c1cnc(N2CCN([C@@H](C)c3ccc4c(c3)OCCO4)CC2)s1 (single isomer, unassigned) [Example 62, (S)-2-(4-(1-(2,3-dihydrobenzorbiri,41dioxin-6-yl)ethyl)piperazin-1-yl)-N-ethylthiazole-5-carboxamide or (R)-2-(4-(1-(2,3-dihydrobenzorblH,41dioxin-6-yl)ethyl)piperazin-1-yl)-N-ethylthiazole-5-carboxamide] | 5e-08 to 2e-07
11 | C[C@@H](c1ccc2c(c1)OCCO2)N1CCN(c2ncc(C(=O)N3CCN(C)CC3)s2)CC1 (single isomer, unassigned) [Example 74] | 1e-06 to 1e-05
12 | CCNC(=O)c1cnc(N2CCN([C@@H](C)c3ccc4c(c3)OCO4)CC2)s1 (single isomer, unassigned) [Example 60] | 5e-08 to 2e-07
13 | C[C@@H](c1ccc2c(c1)OCCO2)N1CCN(c2ncc(C(=O)N(C)C)s2)CC1 (single isomer, unassigned) [Example 63] | 1e-06 to 1e-05
14 | C[C@@H](c1ccc2c(c1)OCCO2)N1CCN(c2ncc(C(=O)N(C)C)s2)CC1 (single isomer, unassigned) [Example 64] | < 5e-08
15 | C[C@@H](c1ccc2c(c1)OCCO2)N1CCN(c2ncc(C(=O)N3CCN(C)CC3)s2)CC1 (single isomer, unassigned) [Example 75] | < 5e-08

Same assay, conditions: OGA enzyme inhibition assay; activity range classes; read-out: OGA IC50

Row | IC50 [M] | SMILES
16 | < 5e-08 | CC(=O)NCc1csc(N2CCN(C(C)c3ccc4c(c3)OCO4)CC2)n1 (centres unmarked) [Example 85, N-((2-(4-(1-(benzordiri,31dioxol-5-yl)ethyl)piperazin-1-yl)thiazol-4-yl)methyl)acetamide]
17 | < 5e-08 | CNC(=O)c1csc(N2CCN([C@@H](C)c3ccc4c(c3)OCCO4)CC2)n1 (single isomer, unassigned) [Example 57, (R)-2-(4-(1-(2,3-dihydrobenzorbin,41dioxin-6-yl)ethyl)piperazin-1-yl)-N-methylthiazole-4-carboxamide or (S)-2-(4-(1-(2,3-dihydrobenzorbiri,41dioxin-6-yl)ethyl)piperazin-1-yl)-N-methylthiazole-4-carboxamide]
